Test results from patent US7700300B2, “Screening of compounds for GAT2 transporter activity” (XenoPort, Inc., priority 2005, dated 2010).

Columns and labels:
hGAT2 = target: T1, hGAT2 (Homo sapiens, UniProt Q9NSD5); experiment: hGAT2 competition uptake assay with 3H-GABA in HEK-TREx-hGAT2 cells; assay type: cell-based
T1 construct: expressed in transfected cells; host or cells: HEK-TREx cells (HEK-TREx-GAT2 inducible cell line)
T1 sequence (Q9NSD5 1-602): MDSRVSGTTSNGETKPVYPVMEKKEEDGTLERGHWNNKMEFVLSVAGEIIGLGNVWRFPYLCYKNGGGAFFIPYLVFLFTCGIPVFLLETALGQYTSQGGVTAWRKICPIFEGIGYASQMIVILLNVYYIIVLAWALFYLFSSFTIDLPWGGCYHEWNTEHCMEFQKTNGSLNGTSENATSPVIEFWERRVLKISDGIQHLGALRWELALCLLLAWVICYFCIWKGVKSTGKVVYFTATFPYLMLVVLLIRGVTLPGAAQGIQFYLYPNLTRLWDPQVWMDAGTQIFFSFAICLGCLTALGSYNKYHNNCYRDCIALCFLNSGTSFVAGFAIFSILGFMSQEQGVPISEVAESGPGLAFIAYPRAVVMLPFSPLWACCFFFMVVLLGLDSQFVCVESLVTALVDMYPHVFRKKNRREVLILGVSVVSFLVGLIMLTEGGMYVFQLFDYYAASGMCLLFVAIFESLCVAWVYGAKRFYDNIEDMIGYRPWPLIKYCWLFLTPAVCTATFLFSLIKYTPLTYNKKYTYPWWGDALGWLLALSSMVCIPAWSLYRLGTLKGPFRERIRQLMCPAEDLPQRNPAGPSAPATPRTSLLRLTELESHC
Description: A modified competition uptake assay can be developed to determine the ability of a test compound(s) to inhibit the uptake of radiolabeled substrates into HEK-TREx-hGAT2 cells induced to over-express hGAT2. The results can be stated as affinities (IC50).
The competition uptake assay is prepared as follows: Compounds are prepared for assay by diluting a 100 mM stock concentration (in DMSO) to the appropriate working concentration. Typically, seven-point dose response curves are prepared starting at a final assay concentration of 1 mM and carrying out three-fold dilutions. […]
Scintillation fluid (200 μl) (Optiphase Supermix (Perkin Elmer) is added to each well, and the plate is covered with a 96-well adhesive plate cover and placed on a shaker for 10 minutes. The plates are counted on a 96-well plate scintillation counter for 60 sec/well. The data are analyzed using a sigmoidal dose response curve-fitting program (Prism, GraphPad, Inc, San Diego, Calif.; equation: one-site competition).
FIG. 2 depicts the results of a competition experiment using HEK-TREx-GAT2 cells. ^3H-GABA was used as the substrate and unlabeled GABA was used as the competitor. […] Non-specific uptake was determined by measuring the uptake into cells not induced to express the transporter (“no tet”). […]

PgP = target: T2, PgP (Homo sapiens, UniProt P08183); experiment: Transwell monolayer efflux assay in MDCK cells with TREx-PgP; assay type: cell-based; details: 2.5 nM 3H-vinblastine, 250 μM verapamil
T2 construct: expressed in transfected cells; host or cells: MDCK cells
Description: Transwell monolayer efflux assays can be performed by transfecting MDCK cells with the tetracycline-inducible TREx-PgP expression vector. The cells optionally can be transfected with a nucleic acid encoding the transporter of interest. The transfected cells are seeded on polycarbonate filter membranes in transwell dishes and grown for 3-5 days, yielding a polarized monolayer with tight junctions between cells.

T2 sequence (P08183 whole entry): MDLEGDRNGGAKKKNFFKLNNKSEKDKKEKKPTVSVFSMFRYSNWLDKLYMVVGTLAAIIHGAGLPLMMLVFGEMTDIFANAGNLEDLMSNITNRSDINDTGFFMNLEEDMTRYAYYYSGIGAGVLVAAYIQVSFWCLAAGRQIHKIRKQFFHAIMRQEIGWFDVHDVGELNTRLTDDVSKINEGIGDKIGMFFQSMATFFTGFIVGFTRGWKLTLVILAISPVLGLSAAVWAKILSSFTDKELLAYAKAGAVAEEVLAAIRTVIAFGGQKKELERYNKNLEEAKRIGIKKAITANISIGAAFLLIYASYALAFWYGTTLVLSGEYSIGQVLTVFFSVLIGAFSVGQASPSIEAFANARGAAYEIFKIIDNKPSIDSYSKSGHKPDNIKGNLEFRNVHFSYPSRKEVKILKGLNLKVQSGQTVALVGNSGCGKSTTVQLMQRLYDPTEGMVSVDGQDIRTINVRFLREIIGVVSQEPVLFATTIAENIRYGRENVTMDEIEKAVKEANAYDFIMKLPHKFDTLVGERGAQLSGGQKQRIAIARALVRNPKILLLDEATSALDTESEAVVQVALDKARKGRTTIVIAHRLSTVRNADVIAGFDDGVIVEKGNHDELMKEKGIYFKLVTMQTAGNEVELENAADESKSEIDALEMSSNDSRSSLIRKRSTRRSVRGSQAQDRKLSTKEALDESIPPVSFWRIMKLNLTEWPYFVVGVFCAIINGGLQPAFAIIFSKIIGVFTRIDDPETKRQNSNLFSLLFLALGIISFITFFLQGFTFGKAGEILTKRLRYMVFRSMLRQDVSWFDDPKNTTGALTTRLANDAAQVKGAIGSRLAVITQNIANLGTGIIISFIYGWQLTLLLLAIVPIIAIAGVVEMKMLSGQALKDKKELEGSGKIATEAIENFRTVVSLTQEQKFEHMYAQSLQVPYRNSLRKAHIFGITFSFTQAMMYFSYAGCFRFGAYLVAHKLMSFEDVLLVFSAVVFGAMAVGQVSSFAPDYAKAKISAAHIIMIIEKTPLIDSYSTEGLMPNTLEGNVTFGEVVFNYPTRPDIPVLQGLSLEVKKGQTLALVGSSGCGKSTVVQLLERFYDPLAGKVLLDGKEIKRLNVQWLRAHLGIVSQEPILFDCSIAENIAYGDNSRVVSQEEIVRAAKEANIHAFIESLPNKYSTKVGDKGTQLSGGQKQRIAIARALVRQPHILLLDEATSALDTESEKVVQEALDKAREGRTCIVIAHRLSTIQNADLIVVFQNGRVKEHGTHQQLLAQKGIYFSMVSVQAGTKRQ

| uptake of labeled GABA as concentration of unlabeled GABA increased (hGAT2; HEK-TREx-GAT2 cells induced to express GAT2, FIG. 2) | IC50 (hGAT2; HEK-TREx-GAT2 cells induced to express hGAT2, 3H-GABA as substrate) | Apical to basolateral transport in the presence of verapamil (PgP) | Basolateral to apical transport in the presence of verapamil (PgP) | Structure (SMILES) |
| --- | --- | --- | --- | --- |
| decreased | 13 µM |  |  | NCCCC(=O)O [GABA, gamma-aminobutyric acid] |
|  |  | strongly increased | strongly decreased | CC[C@]1(O)C[C@@H]2CN(CCc3c([nH]c4ccccc34)[C@@](C(=O)OC)(c3cc4c(cc3OC)N(C)[C@H]3[C@@](O)(C(=O)OC)[C@H](OC(C)=O)[C@]5(CC)C=CCN6CC[C@]43[C@@H]65)C2)C1 [^3H-vinblastine, vinblastine] |
